Data on 1 compound can be found in patent publication US20130153815A1, “POLYMER COMPRISING A DYE, NANOPARTICLE COMPRISING THE POLYMER, AND METHODS OF PREPARING THE SAME” (Agency for Science, Technology and Research, priority 2011, published 2013).

Molecules are shown by their SMILES.

Data set [1] can be described thus: UV absorption in methanol. The format is physicochemical. The note with it: methanol solution, 0.1 mM, 25° C. Here is the method:
(§1) The absorbance bands of these spectra still remain at 820 nm after chemical modification and hybridization with polymers. The colloidal stability and aggregation were tested by using UV absorbance. Dye-Pol 1 and Dye-Pol 2 were mixed with phosphate buffered saline (PBS) buffer. The absorbance bands remain the same after 3 days (FIG. 7). Similar phenomenon happened to MNP 1 and MNP 2 (FIG. 8). […] FIG. 9 and FIG. 10 show the emission spectra in the near-infrared region (800-1500 nm), excited at 785 nm. The emission spectrum of IR820dye-NH2 is 1002 nm, slightly blue-shifted from 1076 nm (IR-820). Dye-Pol 1 and Dye-Pol 2 show the emission highest peak at 956 nm while the emission of MNP 1 and MNP 2 are 864 and 866 nm, respectively. Dye-Pol 1 and Dye-Pol 2 absorb at 820 nm and emit at 956 nm. They display a large Stokes shift (136 nm).

A short description of data set [2]: NIR photoluminescence emission spectra excited with a 785 nm laser diode. The format is physicochemical. The following applies: near-infrared region (800-1500 nm), excited at 785 nm. Here is the method: as §1

Turning to `CC1(C)C(=CC=C2CCCC(C=CC3=[N+](CCCCS(=O)(=O)[O-])c4ccc5ccccc5c4C3(C)C)=C2Cl)N(CCCCS(=O)(=O)[O-])c2ccc3ccccc3c21.[Na+]` [IR-820], the absorbance band in data set [1] is 820 nm. The compound further gave an emission highest peak in data set [2] of 1076 nm.
